Laboratory results from PubChem BioAssay AID1963874 (Molecular Pharmacology Branch, DTP, NCI, 2024).

System: 253994-281-T-J1-PDC KRAS-mutant spheroids with HUVEC/MSC, viability
Test: Anticancer human tumor 253994-281-T-J1-PDC patient-derived colorectal carcinoma cell line growth inhibition [KRAS2]
Details: for IC50: curve of first compound; for viability, T/C: stronger effect = lower value
How it was run: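 KRAS-mutant tumor cells were grown as spheroids with HUVEC endothelial cells and human MSCs as stroma. Targeted agents were tested alone and with KRAS pathway inhibitors. Doses started at or near clinical Cmax, or 10 microM, descending half-log.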

[1] = second compound 0.1 µM, first compound 0.0316 µM
[2] = second compound 0.1 µM, first compound 0.1 µM
[3] = second compound 0.1 µM, first compound 0.316 µM
[4] = second compound 0.1 µM, first compound 1 µM
[5] = second compound 0.1 µM, first compound 3.16 µM
[6] = second compound 0.1 µM, first compound 10 µM
[7] = second compound 0.316 µM, first compound 0.0316 µM
[8] = second compound 0.316 µM, first compound 0.1 µM
[9] = second compound 0.316 µM, first compound 0.316 µM
[10] = second compound 0.316 µM, first compound 1 µM
[11] = second compound 0.316 µM, first compound 3.16 µM
[12] = second compound 0.316 µM, first compound 10 µM
[13] = second compound 1 µM, first compound 0.0316 µM
[14] = second compound 1 µM, first compound 0.1 µM
[15] = second compound 1 µM, first compound 0.316 µM
[16] = second compound 1 µM, first compound 1 µM
[17] = second compound 1 µM, first compound 3.16 µM
[18] = second compound 1 µM, first compound 10 µM
[19] = second compound 3.16 µM, first compound 0.0316 µM
[20] = second compound 3.16 µM, first compound 0.1 µM
[21] = second compound 3.16 µM, first compound 0.316 µM
[22] = second compound 3.16 µM, first compound 1 µM
[23] = second compound 3.16 µM, first compound 3.16 µM
[24] = second compound 3.16 µM, first compound 10 µM
[25] = second compound 10 µM, first compound 0.0316 µM
[26] = second compound 10 µM, first compound 0.1 µM
[27] = second compound 10 µM, first compound 0.316 µM
[28] = second compound 10 µM, first compound 1 µM
[29] = second compound 10 µM, first compound 3.16 µM
[30] = second compound 10 µM, first compound 10 µM
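Note: spheroids exposed to agents for seven days before readout.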
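Throughout, for viability, T/C: percent of DMSO vehicle control viability.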

| Compound | IC50 (second compound 0.1 µM) [nM] | IC50 (second compound 0.316 µM) [nM] | IC50 (second compound 1 µM) [nM] | IC50 (second compound 3.16 µM) [nM] | IC50 (second compound 10 µM) [nM] | viability, T/C [1] [%] | viability, T/C [2] [%] | viability, T/C [3] [%] | viability, T/C [4] [%] | viability, T/C [5] [%] | viability, T/C [6] [%] | viability, T/C [7] [%] | viability, T/C [8] [%] | viability, T/C [9] [%] | viability, T/C [10] [%] | viability, T/C [11] [%] | viability, T/C [12] [%] | viability, T/C [13] [%] | viability, T/C [14] [%] | viability, T/C [15] [%] | further results |
| --- | --- | --- | --- | --- | --- | --- | --- | --- | --- | --- | --- | --- | --- | --- | --- | --- | --- | --- | --- | --- | --- |
| COc1cc(Nc2ncc3c(n2)-c2ccc(Cl)cc2C(c2c(F)cccc2OC)=NC3)ccc1C(=O)O + COc1cc2nc(C)nc(NC(C)c3cc(N)cc(C(F)(F)F)c3)c2cc1OC1CCOC1 | < 31.6 | < 31.6 | < 31.6 | < 31.6 | < 31.6 | 63.4 | 29.7 | 26.6 | 35.2 | 39.9 | 38.6 | 51.4 | 26.8 | 26.5 | 33.1 | 35.2 | 33.6 | 49 | 34.3 | 22.4 | viability, T/C [16]: 27.5%; viability, T/C [17]: 31%; viability, T/C [18]: 34.5%; viability, T/C [19]: 50.1%; viability, T/C [20]: 30%; viability, T/C [21]: 26%; viability, T/C [22]: 29%; viability, T/C [23]: 41.7%; viability, T/C [24]: 45.1%; viability, T/C [25]: 38.3%; viability, T/C [26]: 31.4%; viability, T/C [27]: 25.7%; viability, T/C [28]: 31.6%; viability, T/C [29]: 35.7%; viability, T/C [30]: 29.1% |
| COc1cc2nccc(Oc3ccc(NC(=O)C4(C(=O)Nc5ccc(F)cc5)CC4)cc3)c2cc1OC + CNCc1ccccc1-c1csc(C(C)Nc2nc(C)nc3cc(OC)c(OC)cc23)c1 | > 10000 | 5300 | 3470 | < 31.6 | < 31.6 | 99.4 | 99.1 | 83.8 | 85 | 94.5 | 61.1 | 98.2 | 92 | 84.9 | 96.6 | 68 | 28 | 93.3 | 87.4 | 85.1 | viability, T/C [16]: 85.7%; viability, T/C [17]: 53.9%; viability, T/C [18]: 5.85%; viability, T/C [19]: 43.2%; viability, T/C [20]: 45.6%; viability, T/C [21]: 49.7%; viability, T/C [22]: 25%; viability, T/C [23]: 12.3%; viability, T/C [24]: 0.16%; viability, T/C [25]: 0.13%; viability, T/C [26]: 0.14%; viability, T/C [27]: 0.13%; viability, T/C [28]: 0.13%; viability, T/C [29]: 0.29%; viability, T/C [30]: 0.16% |
| O=C(c1cc(Cc2n[nH]c(=O)c3ccccc23)ccc1F)N1CCN(C(=O)C2CC2)CC1 + CNCc1ccccc1-c1csc(C(C)Nc2nc(C)nc3cc(OC)c(OC)cc23)c1 | > 10000 | > 10000 | > 10000 | < 31.6 | < 31.6 | 101 | 85.3 | 99.8 | 94.3 | 95.2 | 96.2 | 103 | 98.5 | 90.5 | 92.7 | 99.5 | 97.5 | 96.4 | 119 | 93.8 | viability, T/C [16]: 82.9%; viability, T/C [17]: 75.7%; viability, T/C [18]: 78.2%; viability, T/C [19]: 19.2%; viability, T/C [20]: 45%; viability, T/C [21]: 12.3%; viability, T/C [22]: 35.3%; viability, T/C [23]: 16.5%; viability, T/C [24]: 11%; viability, T/C [25]: 0.17%; viability, T/C [26]: 0.16%; viability, T/C [27]: 0.17%; viability, T/C [28]: 0.19%; viability, T/C [29]: 0.17%; viability, T/C [30]: 0.24% |
